Results as given in ChEMBL document CHEMBL1201862, “PubChem BioAssay data set” (2004).
Blank lines part the entries; values can stand above or below the molecule they belong to. Calls of active or inactive are those of the source.

Assays:
[1] = Counterscreen for AddAB inhibitors: absorbance-based bacterial cell-based high throughput dose response assay for inhibitors of bacterial viability. [Related pubchem assays (depositor defined):AID435030, AID449728, AID449731, AID488942, AID488955, AID488956]; type: functional
Exodeoxyribonuclease V = Exodeoxyribonuclease V (Escherichia coli (strain K12), UniProt P04993+P07648+P08394); assay: E. coli RecBCD inhibitors, dose response, counter-screen for AddAB inhibitor project, absorbance, V66 E. coli, mutant T4 phage (AID 492957); type: functional, cell-based, Escherichia coli str. K-12 substr. MG1655
Mu-type opioid receptor = Mu-type opioid receptor (Homo sapiens, UniProt P35372); assay: HTS Image-Based Screen for Agonists of the MOR Receptor. [Related pubchem assays (depositor defined):AID1777, AID1785, AID1786, AID2133]; type: functional;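 further: imaging of beta-arrestin GFP recruitment into spots after receptor activation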
[2] = molecular target: T1, Kappa-type opioid receptor (Homo sapiens, UniProt P41145); type: functional
[3] = molecular target: T2, Delta-type opioid receptor (Homo sapiens, UniProt P41143); assay: HTS Image-Based Screen for Agonists of the DOR Receptor. [Related pubchem assays (depositor defined):AID1777, AID1786, AID2133]; type: functional
[4] = molecular target: T1, Kappa-type opioid receptor; type: functional; remark: listed apart in the source
Fatty acid synthase [5] = molecular target: T3, Fatty acid synthase (Homo sapiens, UniProt P49327); assay: FAS thioesterase domain inhibitors, dose response, biochemical, kinetic fluorescence intensity (AID 624326); type: functional;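 further: rate of fluorescence rise from hydrolysis of a fluorogenic O-methyl fluorescein ester substrate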
Fatty acid synthase [6] = molecular target: T3, Fatty acid synthase; assay: FAS thioesterase domain inhibitors, dose response, biochemical, endpoint fluorescence intensity, uHTS hits (AID 624327); type: functional;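 further: fluorescence from hydrolysis of an O-methyl fluorescein acyl ester substrate by the enzyme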
[7] = molecular target: T2, Delta-type opioid receptor; assay: HTS Image-Based Screen for Antagonists of the DOR Receptor. [Related pubchem assays (depositor defined):AID1777, AID1785, AID1786, AID2133]; type: functional
[8] = molecular target: T4, Tyrosine-protein phosphatase non-receptor type 22 (Homo sapiens, UniProt Q9Y2R2); type: functional
T4 sequence (Q9Y2R2 whole entry): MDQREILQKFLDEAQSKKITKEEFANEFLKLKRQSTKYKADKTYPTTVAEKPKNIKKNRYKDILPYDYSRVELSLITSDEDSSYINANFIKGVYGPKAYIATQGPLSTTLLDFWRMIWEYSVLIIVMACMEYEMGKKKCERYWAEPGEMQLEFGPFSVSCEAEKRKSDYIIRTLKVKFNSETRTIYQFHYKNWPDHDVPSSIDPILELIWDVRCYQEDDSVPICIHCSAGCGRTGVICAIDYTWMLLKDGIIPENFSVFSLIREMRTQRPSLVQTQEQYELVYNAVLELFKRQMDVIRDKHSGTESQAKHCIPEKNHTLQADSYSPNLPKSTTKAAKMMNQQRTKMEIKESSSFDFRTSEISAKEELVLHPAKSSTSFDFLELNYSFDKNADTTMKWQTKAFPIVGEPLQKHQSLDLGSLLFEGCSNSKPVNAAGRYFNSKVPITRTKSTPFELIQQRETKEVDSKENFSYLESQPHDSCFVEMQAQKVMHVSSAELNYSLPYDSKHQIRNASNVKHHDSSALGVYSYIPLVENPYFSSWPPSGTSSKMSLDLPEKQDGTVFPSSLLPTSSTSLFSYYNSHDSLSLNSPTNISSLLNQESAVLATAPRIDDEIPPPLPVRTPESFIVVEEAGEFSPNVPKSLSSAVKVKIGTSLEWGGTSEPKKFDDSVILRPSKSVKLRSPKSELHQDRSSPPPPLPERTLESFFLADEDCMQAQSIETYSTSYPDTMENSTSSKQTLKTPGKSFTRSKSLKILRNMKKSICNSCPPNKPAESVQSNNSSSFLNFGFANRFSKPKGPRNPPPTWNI

[9] = molecular target: T5, Tyrosine-protein phosphatase non-receptor type 7 (Homo sapiens, UniProt P35236); type: functional
T5 sequence (P35236 whole entry): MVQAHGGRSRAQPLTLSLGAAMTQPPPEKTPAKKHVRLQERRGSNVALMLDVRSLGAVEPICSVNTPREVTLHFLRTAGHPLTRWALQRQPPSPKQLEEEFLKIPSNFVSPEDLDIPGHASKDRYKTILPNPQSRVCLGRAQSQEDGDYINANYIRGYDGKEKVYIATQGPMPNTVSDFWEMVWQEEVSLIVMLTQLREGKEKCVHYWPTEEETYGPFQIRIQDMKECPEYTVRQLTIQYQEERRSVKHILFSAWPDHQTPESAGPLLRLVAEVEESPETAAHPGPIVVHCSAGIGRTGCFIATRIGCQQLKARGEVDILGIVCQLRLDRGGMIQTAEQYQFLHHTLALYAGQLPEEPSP

[10] = molecular target: T4, Tyrosine-protein phosphatase non-receptor type 22; type: functional; remark: listed apart in the source
[11] = molecular target: Intestinal-type alkaline phosphatase (Mus musculus, UniProt P24822); assay: PubChem AID 488785; type: functional
[12] = molecular target: Intestinal-type alkaline phosphatase (Homo sapiens, UniProt P09923); assay: inhibition of human intestinal alkaline phosphatase – biochemical, dose response (AID 488876); type: functional
[13] = molecular target: T6, Alkaline phosphatase, tissue-nonspecific isozyme (Homo sapiens, UniProt P05186); assay: TNAP enzyme inhibition by screening hits, dose response, selectivity assay for mouse IAP inhibitor project, biochemical, human TNAP, uHTS hits (AID 488906); type: functional
T6 sequence (P05186 whole entry): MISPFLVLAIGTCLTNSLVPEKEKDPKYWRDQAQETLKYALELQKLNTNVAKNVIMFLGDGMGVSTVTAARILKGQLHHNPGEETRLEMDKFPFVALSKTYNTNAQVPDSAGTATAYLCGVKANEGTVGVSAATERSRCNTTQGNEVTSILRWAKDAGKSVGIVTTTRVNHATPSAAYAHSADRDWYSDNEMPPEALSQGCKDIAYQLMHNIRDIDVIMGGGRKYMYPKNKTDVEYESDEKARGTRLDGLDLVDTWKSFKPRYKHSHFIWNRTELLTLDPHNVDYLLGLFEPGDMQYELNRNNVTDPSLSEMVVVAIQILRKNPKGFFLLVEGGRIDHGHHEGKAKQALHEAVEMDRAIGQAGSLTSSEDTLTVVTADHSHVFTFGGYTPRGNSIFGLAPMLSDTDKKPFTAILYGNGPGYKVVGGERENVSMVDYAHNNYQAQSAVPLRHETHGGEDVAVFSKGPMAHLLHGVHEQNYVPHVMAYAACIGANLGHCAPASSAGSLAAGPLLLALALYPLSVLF

[14] = molecular target: T5, Tyrosine-protein phosphatase non-receptor type 7; assay: HePTP (PTPN7) phosphatase inhibitor potency, SAR follow-up, biochemical, set 2 (AID 449736); type: functional
[15] = molecular target: Tyrosine-protein phosphatase non-receptor type 12 (Homo sapiens, UniProt Q05209); assay: SAR Selectivity Analysis of small molecule inhibitors of PEST using pCAP in a fluorescence assay. [Related pubchem assays (depositor defined):AID1779, AID1784, AID2135]; type: functional
J774.A1 = assay: Confirmation of image-based Screening Assay for Inhibitors of Phagocytosis. [Related pubchem assays (depositor defined):AID1029, AID1643]; type: functional, cell-based; settings: Mus musculus
[16] = molecular target: T4, Tyrosine-protein phosphatase non-receptor type 22; assay: SAR LYP1 Fluorescent Assay using OMFP substrate for In Vitro dose response studies - Set 3. [Related pubchem assays (depositor defined):AID1779, AID1784, AID2140, AID2686]; type: functional
[17] = cytotoxicity in HEK-293T cells, dose response, cytotoxicity control for TCR NF-kB inhibitor project, luminescence, T-cell screen hits (AID 489026); type: functional, cell-based;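 further: cells exposed to compound about 14 hours before the viability readout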
[18] = molecular target: T4, Tyrosine-protein phosphatase non-receptor type 22; assay: LYP (PTPN22) phosphatase inhibitor potency, SAR follow-up, biochemical, pCAP fluorogenic substrate, fluorescence, set 3 (AID 449727); type: functional
[19] = molecular target: T7, G-protein coupled receptor 35 (Homo sapiens, UniProt Q9HC97); assay: SAR analysis of Agonists of the GPR35 Receptor using an Image-Based Assay - Set 4. [Related pubchem assays (depositor defined):AID2013, AID2026]; type: functional
[20] = molecular target: T7, G-protein coupled receptor 35; assay: SAR analysis of Antagonists of the GPR35 Receptor using an Image-Based Assay - Set 6. [Related pubchem assays (depositor defined):AID2013, AID2026]; type: functional
[21] = molecular target: G-protein coupled receptor 55 (Homo sapiens, UniProt Q9Y2T6); assay: SAR Analysis of Selective Antagonists of GPR55 using an Image-Based Assay - Set 4. [Related pubchem assays (depositor defined):AID2013, AID2026]; type: functional;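 further: antagonism of response to 5 µM lysophosphatidylinositol agonist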
Cannabinoid receptor 1 [22] = molecular target: T8, Cannabinoid receptor 1 (Homo sapiens, UniProt P21554); assay: SAR analysis of antagonists of the Cannabinoid Receptor 1 using an Image-Based Assay - Set 4. [Related pubchem assays (depositor defined):AID2013, AID2026]; type: functional
Cannabinoid receptor 2 [23] = molecular target: T9, Cannabinoid receptor 2 (Homo sapiens, UniProt P34972); assay: SAR analysis of antagonists of the Cannabinoid Receptor 2 using an Image-Based Assay - Set 3. [Related pubchem assays (depositor defined):AID2013, AID2026]; type: functional
Cannabinoid receptor 2 [24] = molecular target: T9, Cannabinoid receptor 2; assay: SAR analysis of agonists of the Cannabinoid Receptor 2 using an Image-Based Assay - Set 3. [Related pubchem assays (depositor defined):AID2013, AID2026]; type: functional
Cannabinoid receptor 1 [25] = molecular target: T8, Cannabinoid receptor 1; assay: SAR analysis of agonists of the Cannabinoid Receptor 1 using an Image-Based Assay - Set 4. [Related pubchem assays (depositor defined):AID2013, AID2026]; type: functional
[26] = (§1) Late stage assay provider results from the probe development effort to identify inhibitors of Protein Phosphatase Methylesterase 1 (PME-1): luminescence-based […] dose response assay to determine cytotoxicity of inhibitor compounds. [Related pubchem assays (depositor defined):AID2130, AID2143, AID2171, AID2174, AID2177, AID2232, AID2233, AID2291, AID2363, AID2365, AID2366, AID2368, AID2369, AID2371, AID463124, AID463130, AID463131, AID463132, AID463146, AID463149] Panel member name: Serum-free Media; type: toxicity
[27] = as §1, with “Fetal Calf Serum” for “Serum-free Media”; type: toxicity
[28] = molecular target: Protein phosphatase methylesterase 1 (Homo sapiens, UniProt Q9Y570); assay: Late stage assay provider results from the probe development effort to identify inhibitors of protein phosphatase methylesterase 1 (PME-1): Gel-based Activity-Based Protein Profiling (ABPP) IC50 Set 2. [Related pubchem assays (depositor defined):AID2130, AID2143, AID2171, AID2174, AID2177, AID2232, AID2233, AID2291, AID2363, AID2365, AID2366, AID2368, AID2369, AID2371, AID463090, AID463091]; type: functional
[29] = molecular target: Peroxisome proliferator-activated receptor gamma/Nuclear receptor coactivator 1 (Homo sapiens, UniProt P37231); assay: TR-FRET dose response biochemical High Throughput Screening assay for agonists of the steroid receptor coactivator 1 (SRC-1) recruitment by the peroxisome proliferator-activated receptor gamma (PPAR gamma): non-selective agonists. [Related pubchem assays (depositor defined):AID1300, AID1808, AID504735, AID631]; type: protein assay
[30] = molecular target: Peroxisome proliferator-activated receptor gamma/Nuclear receptor coactivator 2 (Homo sapiens, UniProt P37231); assay: (§2) TR-FRET dose response biochemical High Throughput Screening assay for agonists of the steroid receptor coactivator 2 (SRC-2) recruitment by the peroxisome proliferator-activated receptor gamma (PPAR gamma): non-selective agonists. [Related pubchem assays: 1297, 1032 ]; type: functional
[31] = molecular target: Peroxisome proliferator-activated receptor gamma/Nuclear receptor coactivator 3 (Homo sapiens, UniProt P37231); assay: as §2, with “3 (SRC-3)” for “2 (SRC-2)”, “1301 (Confirmation screen.), 1048 (Primary screen.)]” for “1297, 1032 ]”; type: functional

T3 sequence (P49327 whole entry, the tested form may be a part): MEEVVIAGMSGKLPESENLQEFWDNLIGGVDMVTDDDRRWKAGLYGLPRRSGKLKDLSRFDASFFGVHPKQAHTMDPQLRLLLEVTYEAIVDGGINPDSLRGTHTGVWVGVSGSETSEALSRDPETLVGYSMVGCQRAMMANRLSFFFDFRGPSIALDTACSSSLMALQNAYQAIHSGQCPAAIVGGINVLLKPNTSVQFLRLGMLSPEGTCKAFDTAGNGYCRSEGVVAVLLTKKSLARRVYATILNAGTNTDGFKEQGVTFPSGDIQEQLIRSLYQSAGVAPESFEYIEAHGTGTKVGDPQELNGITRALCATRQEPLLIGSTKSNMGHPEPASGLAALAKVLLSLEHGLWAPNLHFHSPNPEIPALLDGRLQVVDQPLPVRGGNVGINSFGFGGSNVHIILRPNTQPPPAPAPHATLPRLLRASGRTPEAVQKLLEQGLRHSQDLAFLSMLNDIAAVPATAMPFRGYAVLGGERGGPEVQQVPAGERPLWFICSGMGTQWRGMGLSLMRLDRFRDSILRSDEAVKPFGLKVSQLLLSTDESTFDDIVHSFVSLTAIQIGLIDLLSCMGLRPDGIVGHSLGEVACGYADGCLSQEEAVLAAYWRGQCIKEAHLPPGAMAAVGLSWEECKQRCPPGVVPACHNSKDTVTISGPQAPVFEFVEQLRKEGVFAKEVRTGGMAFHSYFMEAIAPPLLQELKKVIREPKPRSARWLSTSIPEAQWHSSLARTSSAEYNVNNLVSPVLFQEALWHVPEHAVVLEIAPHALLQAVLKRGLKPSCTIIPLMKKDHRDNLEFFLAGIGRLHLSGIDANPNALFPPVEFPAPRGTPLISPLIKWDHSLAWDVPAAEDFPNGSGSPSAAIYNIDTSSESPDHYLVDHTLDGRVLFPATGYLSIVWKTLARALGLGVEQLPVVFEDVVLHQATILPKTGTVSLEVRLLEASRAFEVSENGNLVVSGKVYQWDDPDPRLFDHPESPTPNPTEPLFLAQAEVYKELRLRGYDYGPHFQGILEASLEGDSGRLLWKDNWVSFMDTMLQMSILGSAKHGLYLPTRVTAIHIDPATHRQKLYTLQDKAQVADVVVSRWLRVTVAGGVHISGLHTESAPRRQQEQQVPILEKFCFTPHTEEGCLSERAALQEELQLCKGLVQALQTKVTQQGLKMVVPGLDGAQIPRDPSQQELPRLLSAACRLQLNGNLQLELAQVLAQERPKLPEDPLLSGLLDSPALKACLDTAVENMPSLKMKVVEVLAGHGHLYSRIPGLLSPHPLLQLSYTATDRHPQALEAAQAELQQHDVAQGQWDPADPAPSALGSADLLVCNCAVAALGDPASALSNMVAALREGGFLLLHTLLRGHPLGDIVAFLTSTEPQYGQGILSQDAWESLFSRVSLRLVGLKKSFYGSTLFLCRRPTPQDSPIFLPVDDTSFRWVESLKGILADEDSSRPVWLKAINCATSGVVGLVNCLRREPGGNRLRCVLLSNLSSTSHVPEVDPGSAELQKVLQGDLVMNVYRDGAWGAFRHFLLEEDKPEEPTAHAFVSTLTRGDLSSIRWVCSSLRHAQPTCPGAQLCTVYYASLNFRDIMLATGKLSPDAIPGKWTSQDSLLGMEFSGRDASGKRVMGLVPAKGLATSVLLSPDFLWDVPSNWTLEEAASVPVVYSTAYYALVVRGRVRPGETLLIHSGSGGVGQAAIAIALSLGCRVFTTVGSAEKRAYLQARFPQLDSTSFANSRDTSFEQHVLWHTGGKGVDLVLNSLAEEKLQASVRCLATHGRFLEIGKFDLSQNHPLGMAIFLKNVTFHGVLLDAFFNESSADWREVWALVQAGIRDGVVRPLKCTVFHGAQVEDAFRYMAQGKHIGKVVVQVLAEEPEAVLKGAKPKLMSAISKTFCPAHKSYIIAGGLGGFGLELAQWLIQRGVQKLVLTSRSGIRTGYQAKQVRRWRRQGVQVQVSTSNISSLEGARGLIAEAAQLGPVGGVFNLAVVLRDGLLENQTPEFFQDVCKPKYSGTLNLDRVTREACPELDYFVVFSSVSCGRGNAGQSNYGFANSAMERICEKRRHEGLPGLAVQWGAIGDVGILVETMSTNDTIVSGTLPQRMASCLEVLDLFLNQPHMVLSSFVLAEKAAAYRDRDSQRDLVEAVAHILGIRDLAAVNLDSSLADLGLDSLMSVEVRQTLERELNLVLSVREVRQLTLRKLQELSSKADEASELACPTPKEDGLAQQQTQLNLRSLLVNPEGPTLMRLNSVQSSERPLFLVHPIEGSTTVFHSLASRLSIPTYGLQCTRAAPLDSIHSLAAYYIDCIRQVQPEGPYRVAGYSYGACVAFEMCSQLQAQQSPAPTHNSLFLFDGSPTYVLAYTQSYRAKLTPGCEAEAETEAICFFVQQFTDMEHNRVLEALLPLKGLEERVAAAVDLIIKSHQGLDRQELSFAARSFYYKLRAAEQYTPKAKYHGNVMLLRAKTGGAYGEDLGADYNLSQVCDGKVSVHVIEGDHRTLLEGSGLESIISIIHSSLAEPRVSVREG
T7 sequence (Q9HC97 whole entry): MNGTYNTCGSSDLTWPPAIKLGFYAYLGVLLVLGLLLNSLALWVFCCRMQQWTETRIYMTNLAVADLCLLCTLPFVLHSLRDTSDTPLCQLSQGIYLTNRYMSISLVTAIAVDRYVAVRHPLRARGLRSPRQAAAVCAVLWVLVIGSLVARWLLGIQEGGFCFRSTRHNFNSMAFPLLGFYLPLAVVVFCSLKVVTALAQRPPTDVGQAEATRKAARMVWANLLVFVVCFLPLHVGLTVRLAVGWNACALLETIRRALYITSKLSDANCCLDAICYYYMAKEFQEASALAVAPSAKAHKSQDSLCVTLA
T2 sequence (P41143 whole entry): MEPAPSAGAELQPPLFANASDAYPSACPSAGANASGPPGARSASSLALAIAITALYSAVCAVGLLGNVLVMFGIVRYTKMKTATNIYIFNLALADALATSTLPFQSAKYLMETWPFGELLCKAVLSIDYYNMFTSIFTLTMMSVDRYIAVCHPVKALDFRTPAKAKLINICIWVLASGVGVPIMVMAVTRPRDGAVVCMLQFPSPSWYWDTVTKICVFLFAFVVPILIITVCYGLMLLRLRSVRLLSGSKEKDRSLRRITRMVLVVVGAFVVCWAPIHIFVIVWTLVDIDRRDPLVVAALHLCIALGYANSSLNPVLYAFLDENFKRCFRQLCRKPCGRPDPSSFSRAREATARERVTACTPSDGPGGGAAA
T8 sequence (P21554 whole entry): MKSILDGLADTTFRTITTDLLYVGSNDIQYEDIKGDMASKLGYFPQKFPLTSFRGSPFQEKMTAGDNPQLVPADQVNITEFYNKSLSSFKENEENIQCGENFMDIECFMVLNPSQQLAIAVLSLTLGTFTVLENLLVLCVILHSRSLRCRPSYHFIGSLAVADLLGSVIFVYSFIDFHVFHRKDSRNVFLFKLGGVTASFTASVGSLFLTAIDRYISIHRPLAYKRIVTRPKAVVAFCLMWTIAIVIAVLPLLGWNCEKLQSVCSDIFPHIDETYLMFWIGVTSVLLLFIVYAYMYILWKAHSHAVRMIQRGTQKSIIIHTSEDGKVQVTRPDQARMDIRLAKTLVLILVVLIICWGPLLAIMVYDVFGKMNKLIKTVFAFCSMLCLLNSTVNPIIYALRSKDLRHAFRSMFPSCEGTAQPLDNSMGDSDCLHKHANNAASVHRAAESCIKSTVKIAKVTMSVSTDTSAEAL
T9 sequence (P34972 whole entry): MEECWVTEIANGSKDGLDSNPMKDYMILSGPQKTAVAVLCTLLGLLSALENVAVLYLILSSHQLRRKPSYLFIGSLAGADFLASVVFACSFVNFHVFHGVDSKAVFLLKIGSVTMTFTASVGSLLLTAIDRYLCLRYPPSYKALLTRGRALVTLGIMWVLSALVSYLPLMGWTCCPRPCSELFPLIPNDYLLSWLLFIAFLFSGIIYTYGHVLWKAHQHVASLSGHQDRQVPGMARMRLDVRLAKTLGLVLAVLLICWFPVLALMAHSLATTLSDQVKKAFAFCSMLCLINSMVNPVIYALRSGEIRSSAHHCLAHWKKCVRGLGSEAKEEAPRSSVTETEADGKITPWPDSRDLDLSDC
T1 sequence (P41145 whole entry): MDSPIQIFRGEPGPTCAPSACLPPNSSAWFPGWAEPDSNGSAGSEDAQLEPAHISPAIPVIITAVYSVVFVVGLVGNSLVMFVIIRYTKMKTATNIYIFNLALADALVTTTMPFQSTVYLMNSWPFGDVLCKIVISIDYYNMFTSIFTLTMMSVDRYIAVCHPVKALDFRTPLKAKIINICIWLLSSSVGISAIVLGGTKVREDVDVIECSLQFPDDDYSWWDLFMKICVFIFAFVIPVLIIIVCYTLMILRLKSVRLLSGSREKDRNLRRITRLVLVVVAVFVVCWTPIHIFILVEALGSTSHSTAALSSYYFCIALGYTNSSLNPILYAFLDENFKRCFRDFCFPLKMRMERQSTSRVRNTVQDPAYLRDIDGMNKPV
Protein phosphatase methylesterase 1, sequence (Q9Y570 whole entry): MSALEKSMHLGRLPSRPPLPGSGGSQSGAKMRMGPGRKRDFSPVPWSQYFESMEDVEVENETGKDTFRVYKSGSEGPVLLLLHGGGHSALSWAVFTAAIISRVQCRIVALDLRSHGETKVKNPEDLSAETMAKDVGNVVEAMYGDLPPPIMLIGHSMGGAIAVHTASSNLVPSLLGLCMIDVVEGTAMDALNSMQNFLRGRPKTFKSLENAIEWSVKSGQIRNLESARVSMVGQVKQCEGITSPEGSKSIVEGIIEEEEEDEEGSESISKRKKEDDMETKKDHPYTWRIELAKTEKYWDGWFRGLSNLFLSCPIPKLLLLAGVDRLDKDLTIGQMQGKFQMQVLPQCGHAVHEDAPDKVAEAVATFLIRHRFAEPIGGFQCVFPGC

EC50 (Mu-type opioid receptor): > 32 µM (inactive)
EC50 [2]: 26.4 µM
EC50 [3]: > 32 µM (inactive)
EC50 [4]: > 35 µM
IC50 (Fatty acid synthase [5]): 8.26 µM (active)
IC50 (Fatty acid synthase [6]): 9.19 µM (active)
IC50 [7]: > 32 µM (inactive)
SMILES: O=C1C2ON(c3ccccc3)C(c3cccnc3)C2C(=O)N1c1ccc(Cl)c(Cl)c1 (stereo unspecified)

IC50 [8]: > 79.4 µM (inactive)
IC50 [9]: > 79.4 µM (inactive)
IC50 [10]: > 79.4 µM (inactive)
SMILES: CSc1nsc(SCC(=O)Nc2cccc(C(C)=O)c2)n1

EC50 [19]: > 32 µM (inactive)
IC50 [20]: > 32 µM (inactive)
IC50 [21]: 5.92 µM (active)
IC50 (Cannabinoid receptor 1 [22]): > 32 µM (inactive)
IC50 (Cannabinoid receptor 2 [23]): > 32 µM (inactive)
EC50 (Cannabinoid receptor 2 [24]): 2.52 µM (active)
EC50 (Cannabinoid receptor 1 [25]): > 32 µM (inactive)
SMILES: CNC(=O)c1cc2c(=O)n3ccccc3nc2n(C2CCCC2)c1=N

EC50 [29]: 12.6 µM (inactive)
EC50 [30]: 11.6 µM (not active)
EC50 [31]: > 79.4 µM (not active)
SMILES: Cc1ccccc1Nc1nc(-c2ccccc2)c(C(=O)Nc2cccnc2)s1

The next lines start with the molecule.

SMILES: N#Cc1c(-c2ccccc2)ccn(Cc2cccc(Cl)c2)c1=O
IC50 [1]: > 119 µM (inactive)
IC50 (Exodeoxyribonuclease V): > 119 µM (inactive)

SMILES: NS(=O)(=O)c1ccc2c(c1)oc(=O)c1cc(S(N)(=O)=O)ccc12
IC50 [11]: 2.51 µM (active)
IC50 [12]: 7.73 µM (active)
IC50 [13]: 11.8 µM (active)

SMILES: CCOC(=O)C(C)Oc1cccc2c(=O)n(CC(=O)NCc3ccc4c(c3)OCO4)ccc12 (stereo unspecified)
IC50 [14]: 11.4 µM (active)
IC50 [15]: > 100 µM (inactive)
IC50 (J774.A1): 4.93 µM (active)
IC50 [16]: > 100 µM (inactive)
IC50 [17]: > 80 µM (inactive)
IC50 [18]: > 100 µM (inactive)

SMILES: COC(=O)N1C(=O)[C@](c2ccccc2)(C2CCCC2)N1C(=O)OC
CC50 [26]: > 50 µM (inactive)
CC50 [27]: > 50 µM (inactive)
IC50 [28]: 0.01 µM (active)
IC50 (Fatty acid synthase [5]): 0.715 µM (active)
IC50 (Fatty acid synthase [6]): 0.884 µM (active)
